Source: patent US8765254B2, “Polymeric membranes with human skin-like permeability properties and uses thereof” (EMD Millipore Corporation, priority 2010, dated 2014)
Read-outs that look alike come from different tables or passages of the source.

How the values were obtained:
[1] = Transdermal diffusion, vertical Franz Cell, untreated membrane; format: in vitro ADME; settings: saturated donor solution in water, Sorensen's buffer pH 7.4 receptor, 37° C., 0-26 hrs
Protocol: Conditions for HPLC analysis of flufenamic acid are as noted below: Column Used: Zorbax XDB C18, 3.9 mm×150 mm, 5 μm Mobile Phase Used: 90% Methanol+10% water containing 40 mM acetic acid; Detection wavelength: 280 nm.

[2] = cited from earlier work
[3] = cited from earlier work; remark: listed apart in the source
[4] = cited from earlier work; remark: listed apart in the source
[5] = Transdermal diffusion (cumulative flux) through rat skin samples; settings: rat skin samples of different ages, or rat versus human skin
[6] = separate human skin samples compared
[7] = cited from earlier work; remark: listed apart in the source
[8] = saturated donor solution in water, receptor pH 7.4, 37° C., 0-26 hrs; compared to human, rat, pig skin

Structure (SMILES)	Log P [2]	Log D (pH 7.4) [3]	Aqueous Solubility, LogS [7]	further results
O=C(O)c1ccccc1Nc1cccc(C(F)(F)F)c1 [Flufenamic Acid]	5.2			diffusion (cumulative flux) across untreated membrane relative to human skin [1]: better correlation to human skin than the treated membrane
CC(=O)Oc1ccccc1C(=O)O [Acetyl Salicylic Acid (Aspirin), Acetyl Salicylic Acid]		−1.89		
C[C@]12CCC(=O)C=C1CC[C@@H]1[C@@H]2[C@@H](O)C[C@@]2(C)[C@H]1CC[C@]2(O)C(=O)CO [Hydrocortisone]	1.462			pKa [4]: 12.48; diffusion (cumulative flux) through rat skin [5]: does not appear to show a high degree of correlation with human skin
Oc1cc(Cl)ccc1Oc1ccc(Cl)cc1Cl [Triclosan/Irgasan, Triclosan]	4.76			
O=C(O)Cc1ccccc1Nc1c(Cl)cccc1Cl [Diclofenac]	4.05	0.95		
COC(=O)c1ccc(O)cc1 [Methyl paraben, methyl p-hydroxybenzoate]				diffusion (cumulative flux) through separate human skin samples [6]: high degree of variability between the different human skin samples
CC(C(=O)O)c1ccc(-c2ccccc2)c(F)c1 (stereo not shown) [Flurbiprofen]	4.115	0.98	−4.49	
COc1cc(Cc2cnc(N)nc2N)cc(OC)c1OC [Trimethoprim]			−2.67	
O=C(c1ccccc1)c1ccc2n1CCC2C(=O)O (stereo not shown) [Ketorolac]			−2.7	
Clc1ccccc1C(c1ccccc1)(c1ccccc1)n1ccnc1 [Clotrimazole]	6.1		−5.37	diffusion (cumulative flux) across treated membrane relative to skin [8]: high degree of correlation with human skin
CN(C)CCCN1c2ccccc2Sc2ccc(Cl)cc21 [Chlorpromazine]	5.203	3.22	−5.01	
CCCCNc1ccc(C(=O)OCCN(C)C)cc1 [Tetracaine]	3.649	2.75	−2.75	pKa [4]: 8.24
C[C@@H]1C[C@H]2[C@@H]3CCC4=CC(=O)C=C[C@]4(C)[C@@]3(F)[C@@H](O)C[C@]2(C)[C@@]1(O)C(=O)CO [Dexamethasone]	1.869		−3.89	diffusion (cumulative flux) across treated membrane relative to skin [8]: diffusion similar to human and pig skin; Log P ([2]; listed as dexamethasone): 1.896; pKa [4]: 12.14
CN1CCCC1c1cccnc1 (stereo not shown) [Nicotine]	0.72	0.02	−0.24	diffusion (cumulative flux) through rat skin [5]: variability between the rat and human skin samples
